Source: patent US9486471B2, “Combination therapy for the treatment of cancer” (McMaster University, priority 2012, dated 2016)

How the values were obtained:
[1] = test system: AML-OCI2 and AML-OCI3 cell lines; test: Volumetric cell counting of AML cell lines treated with DR antagonists and agonists; format: cell-based, human; settings: 72 h, serum-free conditions
Method: Volumetric Cell Counting. The number of AML-OCI2 and AML-OCI3 cells present after 72 h treatment with DR antagonists (FIG. 16b) and agonist (FIG. 16c-d) were counted by measuring the number of events within a fixed volume following the grating strategy defined by forward scatter and side scatter clustering, 7AAD− and Hoechst+.
Due to the bioavailability of dopamine in fetal bovine serum (FBS) (Little et al., 2002), serum-free conditions were employed to assess the role of DRs in AML.

[2] = test system: differentiation-associated genes in neoplastic hPSCs; test: TaqMan Low-Density Array-qPCR of differentiation genes; format: cell-based, human; settings: treated neoplastic hPSCs; >2 fold increase
Method: Gene Expression Analysis. Cells in specific conditions were collected and RNA was extracted by using RNeasy kit (Qiagen), complementary DNA (cDNA) generation by using SuperScript III® cDNA synthesis kit (Invitrogen), pre-amplification and TaqMan® array reaction (Applied Biosystems) were performed according to manufacturer's instructions. The gene expression profile for each treated cell population was analyzed using TaqMan® Stem Cell Pluripotency Array Card on ViiA 7 Real-Time PCR System (Applied Biosystems). Each reaction sample was dispensed into loading wells on the array card and centrifuged twice at 336×g for 1 min each time, sealed, and placed in the thermal cycler. The following cycling conditions were used for all array card applications: 45° C. for 10 min, 94° C. for 10 min, and 40 cycles of 94° C. for 30 s followed by 60° C. for 1 min. Array data were normalized to 18S RNA and GAPDH and comparisons were performed using data analysis 2.0 software (Applied Biosystems).

[3] = test system: CD14+ cells in primary AML; test: Flow cytometry frequency of CD14+ cells in primary AML; format: cell-based, human; settings: 10 μM, 72 h; control 100%
[4] = test system: patient AML cells (CD11b); test: Frequency of CD11b granulocytic cells in cultured patient AML cells; format: cell-based, human; settings: 10 μM, up to 96 hours
[5] = test system: neoplastic hPSCs (v1H9-Oct4-GFP); test: Flow cytometry of Oct4 in neoplastic hPSCs; format: cell-based, human
[6] = test system: HL-60, MV4-11 and OCI-AML3 leukemic cell lines; test: Normalized cell number of leukemic cell lines after 72 h incubation (Examples 1, 3); format: cell-based, human
Method: All three lines are leukemic cell lines. […] Each condition had three replicates.
The dopamine receptor antagonist and phenothiazine-related compound chlorpromazine was also investigated for effects on the AML cell lines HL-60, MV4-11 and OCI-AML3. Testing was performed as set out in Example 1.

[7] = test system: primary AML cells; test: Methocellulose blast colony formation of primary AML cells (Example 2); format: cell-based, human; settings: 10 μM; control about 22; at least 14 days
Method: Normal HSCs and progenitors were sourced from either mobilized peripheral blood or umbilical cord blood of health patients. Primary AML cells were taken from patients diagnosed with AML. Both normal HSCs and primary AML cells were cultured under standard in vitro methocellulose assay conditions (see http://www.stemcell.com/en/Products/All-Products/MethoCult-H4434-Classic.aspx as well as Clinton Campbell et al. The human stem cell hierarchy is defined by a functional dependence on Mcl-1 for self-renewal capacity. Blood 116 (9) 1433-1442 (Jun. 4, 2010), hereby incorporated by reference) for at least 14 days before the number of colonies were recorded.

[8] = test system: hematopoietic stem and progenitor cells (HSPC, CB lin-); test: Methylcellulose colony-forming assay, HSPC (CB lin-); settings: 24 h treatment, colonies scored after 14 days
Method: AML/HPSC Cell Culture. AML cell lines, namely, OCI-AML2 (M4), OCI-AML3 (M4), HL-60 (M2) and MV-4-11(M5) were cultured in RPMI (Gibco) supplemented with 5% heated-inactivated FBS (HyClone). For DR agonist studies with R(+)-7-Hydroxy-DPAT hydrobromide (Sigma), serum-free conditions were employed instead due to the prevalence of dopamine in FBS (Little et al., 2002). AML patient blasts were cultured in IMDM supplemented with 5% heated inactivated FBS (HyClone), 5 ng/mL IL3 (R&D systems), 5×10^−5 M β-mercaptoethanol (Sigma) and BIT (StemCell Technologies). HSC media contained IMDM supplemented with 1% BSA (Sigma), 100 ng/mL SCF (R&D systems), 100 ng/mL Flt-3L (R&D systems) and 20 ng/mL TPO (R&D systems). Patient HSPC and AML samples were treated with compound or DMSO-vehicle (0.1%) for 24 h prior to CFU plating or xenotransplantation studies.
Methylcellulose Colony-Forming Assay. AML patient or CB lin− cells were cultured 24 hours in the presence of compound or DMSO-vehicle (0.1%) control. AML cells were plated at 50 000 cells/mL in Methocult GF H4434 (Stem Cell Technologies). CB lin− cells were plated at 1000 cells/mL in Methocult GF H4434 (Stem Cell Technologies). Colonies were scored after 14 days of culture using standard morphological criteria.

[9] = test system: AML LSCs (CD45+CD33+ blast engraftment); test: Xenotransplantation of compound-treated AML cells into NSG mice; format: in vivo
Method: Xenotransplantation Assays. NOD.Cg-Prkdc^scid II2rg^tm1Wjl/SzJ adult mice (NSG) were sub-lethally irradiated with 315 rads 24 hours prior transplantation. 0.8-1.0×10^7 AML MNCs or 1.5-1.8×10^5 CB lin-hematopoietic cells treated with compound or DMSO-vehicle for 24 h were injected via tail vein (IV). After 6-10 weeks, animals were culled, and the BM and spleen were analyzed for the presence of human cells by flow cytometry (LSRII, BD) and data was analyzed using FlowJo software (Tree Star Inc). For secondary HSPC transplants, equal number of engrafted human cells from CB lin− transplants were injected IV in adult irradiated NSG mice as described for primary transplants.
To delineate whether the inhibition of AML-blasts detected in vitro was due to the compounds affecting the neoplastic stem cell compartment, xenotransplantation studies (Dick, 2008) that functionally define LSCs and hematopoietic stem cells (HSCs) were conducted (FIG. 12).

`CSc1ccc2c(c1)N(CCC1CCCCN1C)c1ccccc1S2` (racemic) [thioridazine, 10-{2-[(RS)-1-Methylpiperidin-2-yl]ethyl}-2-methylsulfanylphenothiazine] was tested, and the “number of AML cells” value [1] was “reduced the number of AML cells”, the upregulated differentiation-associated genes [2] was 21 of 50 and the “normalized frequency of CD14+ cells” value [3] was 20%. The “frequency of granulocytic (CD11b) AML-blast cells” value [4] was “marked increase”, the cell number [5] was “reductions” and the “levels of Oct4” value [5] was “reductions”. The normalized cell number ([6]; 0.1 μM) was “little effect”, the normalized cell number ([6]; 1 μM) was “little effect” and the “normalized cell number / toxicity” value ([6]; 10 μM) was “reduced to almost zero”. For the same molecule, the “number of CFU colonies of AML cells” value [7] was 1.6 blast colonies, the HSPC multilineage differentiation [8] was “retaining” and the “leukemic disease-initiating AML LSC capacity” value ([9]; 10 μM, 24 h ex vivo treatment) was “significantly reduce”. The “level of leukemic engraftment of secondary transplant recipients” value ([9]; secondary recipients, in the absence of thioridazine) was “no difference”.
